In test [1] the target is T1, pantothenate kinase (ecPanK) (Escherichia coli, UniProt P0A6I3).
T1 construct: gene coaA; ecPanK WT, N-terminal Strep-tag, C-terminal Hisx10
T1 sequence (P0A6I3 1-316): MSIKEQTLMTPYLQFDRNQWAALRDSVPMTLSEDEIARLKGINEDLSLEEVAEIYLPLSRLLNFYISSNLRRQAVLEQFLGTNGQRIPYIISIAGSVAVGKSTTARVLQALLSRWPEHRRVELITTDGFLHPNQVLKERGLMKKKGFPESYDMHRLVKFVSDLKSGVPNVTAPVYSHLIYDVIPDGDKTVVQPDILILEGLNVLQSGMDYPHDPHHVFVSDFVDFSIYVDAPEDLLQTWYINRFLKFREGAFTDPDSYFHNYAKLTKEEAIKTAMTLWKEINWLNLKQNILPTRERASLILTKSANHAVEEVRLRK
The experiment in a line: fluorescence polarization competition against TMR-TAZ. Type of test: binding.

Test [2] addresses T1, pantothenate kinase (ecPanK). The experiment in a line: biochemical. On the set-up: fluorescence polarization competition against 50 nM TMR-TAZ with 20 uM ecPanK, half-maximal c50. Here is the method:
The binding affinity (c50) of different ecPanKs for CoA and AcCoA were determined by a fluorescence polarization competition assay against TMR-TAZ. 50 nM TMR-TAZ and 20 μM ecPanKs, except ecPanK^D127A,F252Y,L277W (100 μM), were titrated against CoA or AcCoA concentrations ranging from 64 nM to 5 mM in PBS supplemented with 0.5 mg ml^−1 BSA and 50 mM HEPES. Assays were performed in non-binding black 96-well plates with a final volume of 50 μl with excitation at 520 nm (bandwidth 20 nm) and emission 600 nm (bandwidth 20 nm). Obtained FP values were averaged and fitted to equation (4) to estimate the c50 values using OriginPro 2021.4 FP=FP0+FPs−FP0/1+c50/[L] Where FP0 is the fluorescence polarization of the fluorophore with ecPanKs in the absence of CoA or AcCoA (bound fluorophore), FPs is the fluorescence polarization of the fluorophore in the presence of CoA or AcCoA (free fluorophore) c50 is the half-maximal effective concentration, and [L] is the concentration of CoA or AcCoA. […] Representative in-gel fluorescence scan after SDS-PAGE (n = 3 independent experiments) of Halo-SiR labeled sensor proteins, Lane 1: protein marker, lane 2: CoA-Snifit^V97T, lane 3: CoA-Snifit^G41, lane 4: CoA-Snifit^G41S, lane 5: CoA-Snifit^G41N. c. […] Fluorescence polarization responses (FP, mean ± s.d., n = 3 independent replicates) of 50 nM TMR-TAZ as a function of ecPanK^WT concentration in PBS. e. […]

The target is the same in test [3]. In words: fluorescence polarization, purified protein titrated against […] TMR-TAZ. Type of test: binding. In general terms: In fluorescence polarisation assays a small probe gives low polarisation when free and higher when bound to something large.
Test [4] deals with T2, pantothenate kinase (ecPanK) (Escherichia coli, UniProt P0A6I3, D127A/F252Y/L277W).
T2 construct: gene coaA; ecPanK D127A,F252Y,L277W
In words: fluorescence polarization. Type of test: binding.

In the case of `CC(C)(COP(=O)(O)OP(=O)(O)OC[C@H]1O[C@@H](n2cnc3c(N)ncnc32)[C@H](O)[C@@H]1OP(=O)(O)O)[C@@H](O)C(=O)NCCC(=O)NCCS` [Coenzyme A], in test [1], the “fluorescence polarization competition against TMR-TAZ” value was “CoA competes with TMR-TAZ for binding to ecPanK (Extended Data Fig. 1e)”. Further, the IC50 – broadly, the concentration that inhibits the measured activity by half – in test [2] was found to be 214 ± 19.2 µM.
Consider `CC(NC(=O)c1ccccc1C(F)(F)F)c1nnc(SCc2ccc(F)cc2)n1Cc1ccc(COC(=O)NCCOCCOCCNC(=O)c2ccc(C(=O)O)c(-c3c4ccc(=[N+](C)C)cc-4oc4cc(N(C)C)ccc34)c2)nc1` (centres unmarked) [compound 1, TMR-TAZ], for which the figures for the dissociation constant Kd in test [3] and in test [4] were 1200 ± 200 nM and 21.6 ± 3.7 µM, respectively.
`CC(=O)SCCNC(=O)CCNC(=O)[C@H](O)C(C)(C)COP(=O)(O)OP(=O)(O)OC[C@H]1O[C@@H](n2cnc3c(N)ncnc32)[C@H](O)[C@@H]1OP(=O)(O)O` [acetyl-CoA] yielded an IC50 in test [2] of 1420 ± 315 µM.
